Measured values reported in patent US20220313698A1, “MODULATORS OF CYSTIC FIBROSIS TRANSMEMBRANE CONDUCTANCE REGULATOR” (Vertex Pharmaceuticals Incorporated, priority 2019, published 2022).

Molecular target: CFTR-mediated chloride transport (Homo sapiens, UniProt P13569)
Assay: Corrector Assay A - membrane potential dye assay (enteroid cells)
Settings: for Corrector Assay A % activity: % of chloride transport of triple combination control (1 μM (14S)-dispiro macrocycle + 3 μM tezacaftor + 300 nM ivacaftor); for EC50: read-out: Corrector Assay A EC50, human intestinal enteroid cells, 18-24 h incubation, acute 10 μM forskolin + 300 nM ivacaftor

CC(C)(C)c1ccc2c(n1)N1C[C@@H](CC[C@H](c3cccc(C4=CCNCC4)n3)Nc3cccc(n3)S(=O)(=O)NC2=O)CC1(C)C [Compound 142, (14S,17R)-8-tert-Butyl-12,12-dimethyl-17-{1′,2′,3′,6′-tetrahydro-[2,4′-bipyridine]-6-yl}-2λ^6-thia-3,9,11,18,23-pentaazatetracyclo [17.3.1.111,14.05,10]tetracosa-1(23),5(10),6,8,19,21-hexaene-2,2,4-trione]
Corrector Assay A % activity: +++ (+++ is >60%) | EC50: < 1000 nM

CC(C)(C)c1ccc2c(n1)N1C[C@@H](CCC(c3ccc(CCC#N)cn3)Nc3cccc(n3)S(=O)(=O)NC2=O)CC1(C)C (stereo partly drawn) [Compound 146, 3-{6-[(14S)-8-tert-butyl-12,12-dimethyl-2,2,4-trioxo-2λ^6-thia-3,9,11,18,23-pentaazatetracyclo[17.3.1.111,14.05,10]tetracosa-1(23),5(10),6,8,19,21-hexaen-17-yl]pyridin-3-yl}propanenitrile]
Corrector Assay A % activity: +++ (+++ is >60%) | EC50: < 1000 nM

CC(C)(C)c1ccc2c(n1)N1C[C@@H](CC[C@@H](c3cccc(C4CCOCC4)n3)Nc3cccc(n3)S(=O)(=O)NC2=O)CC1(C)C [Compound 147]
Corrector Assay A % activity: + (+ is <30%) | EC50: > 3000 nM

CC(C)(C)c1ccc2c(n1)N1C[C@@H](CC[C@H](c3cccc(C4CCOCC4)n3)Nc3cccc(n3)S(=O)(=O)NC2=O)CC1(C)C [Compound 148]
Corrector Assay A % activity: +++ (+++ is >60%) | EC50: < 1000 nM

CC(C)(C)c1ccc2c(n1)N1C[C@@H](CC[C@@H](c3cccc(C4=CCOCC4)n3)Nc3cccc(n3)S(=O)(=O)NC2=O)CC1(C)C [Compound 149]
Corrector Assay A % activity: + (+ is <30%) | EC50: < 1000 nM

CC(C)(C)c1ccc2c(n1)N1C[C@@H](CC[C@H](c3cccc(C4=CCOCC4)n3)Nc3cccc(n3)S(=O)(=O)NC2=O)CC1(C)C [Compound 150]
Corrector Assay A % activity: +++ (+++ is >60%) | EC50: < 1000 nM

CC(C)(C)c1ccc2c(n1)N1C[C@@H](CC[C@@H](c3cccc(C4CNC4)n3)Nc3cccc(n3)S(=O)(=O)NC2=O)CC1(C)C [Compound 151]
Corrector Assay A % activity: ++ (++ is 30-60%) | EC50: < 1000 nM

CC(C)(C)c1ccc2c(n1)N1C[C@@H](CC[C@H](c3cccc(C4CNC4)n3)Nc3cccc(n3)S(=O)(=O)NC2=O)CC1(C)C [Compound 152]
Corrector Assay A % activity: +++ (+++ is >60%) | EC50: < 1000 nM

CC(C)(C)c1ccc2c(n1)N1C[C@@H](CCC(c3ccc(C4CCNCC4)cn3)Nc3cccc(n3)S(=O)(=O)NC2=O)CC1(C)C (some centres unmarked) [Compound 153]
Corrector Assay A % activity: ++ (++ is 30-60%) | EC50: < 1000 nM

CC(C)(C)c1ccc2c(n1)N1C[C@@H](CCC(c3ccc(C4CCNCC4)cn3)Nc3cccc(n3)S(=O)(=O)NC2=O)CC1(C)C (stereo partly drawn) [Compound 154, (14S)-8-tert-Butyl-12,12-dimethyl-17-[5-(piperidin-4-yl)pyridin-2-yl]-2λ^6-thia-3,9,11,18,23-pentaazatetracyclo[17.3.1.111,14.05,10]tetracosa-1(23),5(10),6,8,19,21-hexaene-2,2,4-trione]
Corrector Assay A % activity: +++ (+++ is >60%) | EC50: < 1000 nM

CC(C)(C)c1ccc2c(n1)N1C[C@@H](CCC(c3ccc(C4CCOCC4)cn3)Nc3cccc(n3)S(=O)(=O)NC2=O)CC1(C)C (some centres unmarked) [Compound 156]
Corrector Assay A % activity: ++ (++ is 30-60%) | EC50: < 1000 nM

CC(C)CC#Cc1ccc2c(n1)N1C[C@@H](CC[C@H](c3ccccn3)Nc3cccc(n3)S(=O)(=O)NC2=O)CC1(C)C [Compound 157, (14S,17R)-12,12-dimethyl-8-(4-methylpent-1-yn-1-yl)-17-(pyridin-2-yl)-2λ^6-thia-3,9,11,18,23-pentaazatetracyclo[17.3.1.111,14.05,10]tetracosa-1(22),5,7,9,19(23),20-hexaene-2,2,4-trione]
Corrector Assay A % activity: +++ (+++ is >60%) | EC50: < 1000 nM

CC(C)CC#Cc1ccc2c(n1)N1C[C@@H](CC[C@@H](c3ccccn3)Nc3cccc(n3)S(=O)(=O)NC2=O)CC1(C)C [Compound 158]
Corrector Assay A % activity: ++ (++ is 30-60%) | EC50: < 1000 nM

CC1(C)C[C@@H]2CC[C@H](c3ccccn3)Nc3cccc(n3)S(=O)(=O)NC(=O)c3ccc(Cc4ccccc4)nc3N1C2 [Compound 159]
Corrector Assay A % activity: +++ (+++ is >60%) | EC50: < 1000 nM

CC1(C)C[C@@H]2CC[C@@H](c3ccccn3)Nc3cccc(n3)S(=O)(=O)NC(=O)c3ccc(Cc4ccccc4)nc3N1C2 [Compound 160]
Corrector Assay A % activity: ++ (++ is 30-60%) | EC50: < 1000 nM

CC(C)O[C@H]1C[C@@H](Oc2ccc3c(n2)N2C[C@@H](CC[C@H](c4ccccn4)Nc4cccc(n4)S(=O)(=O)NC3=O)CC2(C)C)C1 [Compound 161, (14S,17R)-12,12-dimethyl-17-(pyridin-2-yl)-8-[(1s,3S)-3-(propan-2-yloxy)cyclobutoxy]-2λ^6-thia-3,9,11,18,23-pentaazatetracyclo[17.3.1.111,14.05,10]tetracosa-1(22),5,7,9,19(23),20-hexaene-2,2,4-trione]
Corrector Assay A % activity: +++ (+++ is >60%) | EC50: < 1000 nM

CC(C)O[C@H]1C[C@@H](Oc2ccc3c(n2)N2C[C@@H](CC[C@@H](c4ccccn4)Nc4cccc(n4)S(=O)(=O)NC3=O)CC2(C)C)C1 [Compound 162]
Corrector Assay A % activity: ++ (++ is 30-60%) | EC50: < 1000 nM

CC(C)(C)c1ccc2c(n1)N1C[C@@H](CCC(c3ccc(N4CCCC4)cn3)Nc3cccc(n3)S(=O)(=O)NC2=O)CC1(C)C (some centres unmarked) [Compound 163]
Corrector Assay A % activity: ++ (++ is 30-60%) | EC50: < 1000 nM

CC(C)(C)c1ccc2c(n1)N1C[C@@H](CCC(c3ccc(N4CCCC4)cn3)Nc3cccc(n3)S(=O)(=O)NC2=O)CC1(C)C (stereo partly drawn) [Compound 164, (14S)-8-tert-butyl-12,12-dimethyl-17-[5-(pyrrolidin-1-yl)pyridin-2-yl]-2λ^6-thia-3,9,11,18,23-pentaazatetracyclo[17.3.1.111,14.05,10]tetracosa-1(23),5(10),6,8,19,21-hexaene-2,2,4-trione]
Corrector Assay A % activity: +++ (+++ is >60%) | EC50: < 1000 nM

CC(C)(C)c1ccc2c(n1)N1C[C@@H](CCC(c3ccc(C4CNC4)cn3)Nc3cccc(n3)S(=O)(=O)NC2=O)CC1(C)C (some centres unmarked) [Compound 165]
Corrector Assay A % activity: ++ (++ is 30-60%) | EC50: < 1000 nM

CC(C)(C)c1ccc2c(n1)N1C[C@@H](CCC(c3ccc(C4CNC4)cn3)Nc3cccc(n3)S(=O)(=O)NC2=O)CC1(C)C (some centres unmarked) [Compound 166]
Corrector Assay A % activity: +++ (+++ is >60%) | EC50: < 1000 nM

CC(C)(C)c1ccc2c(n1)N1C[C@@H](CCC(c3ccc(C4=CCOCC4)cn3)Nc3cccc(n3)S(=O)(=O)NC2=O)CC1(C)C (some centres unmarked) [Compound 167]
Corrector Assay A % activity: ++ (++ is 30-60%) | EC50: < 1000 nM

CC(C)(C)c1ccc2c(n1)N1C[C@@H](CCC(c3ccc(C4=CCOCC4)cn3)Nc3cccc(n3)S(=O)(=O)NC2=O)CC1(C)C (some centres unmarked) [Compound 168]
Corrector Assay A % activity: +++ (+++ is >60%) | EC50: < 1000 nM

CC(C)(C)c1ccc2c(n1)N1C[C@@H](CCC(c3ccc(C4CC4)cn3)Nc3cccc(n3)S(=O)(=O)NC2=O)CC1(C)C (some centres unmarked) [Compound 169]
Corrector Assay A % activity: ++ (++ is 30-60%) | EC50: < 1000 nM

CC(C)(C)c1ccc2c(n1)N1C[C@@H](CCC(c3ccc(C4CC4)cn3)Nc3cccc(n3)S(=O)(=O)NC2=O)CC1(C)C (some centres unmarked) [Compound 170]
Corrector Assay A % activity: +++ (+++ is >60%) | EC50: < 1000 nM

CC(C)(C)c1ccc2c(n1)N1C[C@@H](CC[C@@H](c3cccc(N4CCCCC4)n3)Nc3cccc(n3)S(=O)(=O)NC2=O)CC1(C)C [Compound 173]
Corrector Assay A % activity: + (+ is <30%) | EC50: < 1000 nM

CC(C)(C)c1ccc2c(n1)N1C[C@@H](CC[C@H](c3cccc(N4CCCCC4)n3)Nc3cccc(n3)S(=O)(=O)NC2=O)CC1(C)C [Compound 174]
Corrector Assay A % activity: +++ (+++ is >60%) | EC50: < 1000 nM

CC(C)(C)c1ccc2c(n1)N1C[C@@H](CCC(c3ccc(N4CCC4)cn3)Nc3cccc(n3)S(=O)(=O)NC2=O)CC1(C)C (some centres unmarked) [Compound 175]
Corrector Assay A % activity: +++ (+++ is >60%) | EC50: < 1000 nM

CC(C)(C)C#Cc1ccc2c(n1)N1C[C@@H](CC[C@@H](c3ccccn3)Nc3cccc(n3)S(=O)(=O)NC2=O)CC1(C)C [Compound 176]
Corrector Assay A % activity: ++ (++ is 30-60%) | EC50: < 1000 nM

CC(C)(C)C#Cc1ccc2c(n1)N1C[C@@H](CC[C@H](c3ccccn3)Nc3cccc(n3)S(=O)(=O)NC2=O)CC1(C)C [Compound 177]
Corrector Assay A % activity: +++ (+++ is >60%) | EC50: < 1000 nM

CC(C)Cc1ccc(C2CC[C@@H]3CN(c4nc(C(C)(C)C)ccc4C(=O)NS(=O)(=O)c4cccc(n4)N2)C(C)(C)C3)nc1 (some centres unmarked) [Compound 180]
Corrector Assay A % activity: +++ (+++ is >60%) | EC50: < 1000 nM

CC(C)Cc1ccc(C2CC[C@@H]3CN(c4nc(C(C)(C)C)ccc4C(=O)NS(=O)(=O)c4cccc(n4)N2)C(C)(C)C3)nc1 (stereo partly drawn) [Compound 181, (14S)-8-tert-butyl-12,12-dimethyl-17-[5-(2-methylpropyl)pyridin-2-yl]-2λ^6-thia-3,9,11,18,23-pentaazatetracyclo[17.3.1.111,14.05,10]tetracosa-1(23),5(10),6,8,19,21-hexaene-2,2,4-trione]
Corrector Assay A % activity: ++ (++ is 30-60%) | EC50: < 1000 nM

CC(C)=Cc1ccc(C2CC[C@@H]3CN(c4nc(C(C)(C)C)ccc4C(=O)NS(=O)(=O)c4cccc(n4)N2)C(C)(C)C3)nc1 (some centres unmarked) [Compound 182]
Corrector Assay A % activity: +++ (+++ is >60%) | EC50: < 1000 nM

CC(C)=Cc1ccc(C2CC[C@@H]3CN(c4nc(C(C)(C)C)ccc4C(=O)NS(=O)(=O)c4cccc(n4)N2)C(C)(C)C3)nc1 (stereo partly drawn) [Compound 183, (14S)-8-tert-Butyl-12,12-dimethyl-17-[5-(2-methylprop-1-en-1-yl)pyridin-2-yl]-2λ^6-thia-3,9,11,18,23-pentaazatetracyclo[17.3.1.111,14.05,10]tetracosa-1(23),5(10),6,8,19,21-hexaene-2,2,4-trione]
Corrector Assay A % activity: ++ (++ is 30-60%) | EC50: < 1000 nM
